Data as given in patent publication US20220184081A1, “ANTIPRURITIC AGENT USING PAC1 RECEPTOR ANTAGONIST” (KAGOSHIMA UNIVERSITY, priority 2019, published 2022).
No end group written: not given here.

Columns and labels:
mice = assay: Itch behavior upon waist intradermal administration of peptide; assay type: in vivo, mouse; settings: waist intradermal administration 10 μL; PACAP 1 to 1,000 pmol; VIP 100 pmol; FIG. 6
Source text: Accordingly, it is considered that this effect is mediated by the PAC1 receptors (FIG. 6).

mouse PAC1 receptor = target: T1, mouse PAC1 receptor (Mus musculus, UniProt P70205); assay: CREB phosphorylation by PACAP stimulus, Western blot, PAC1/CHO cells; assay type: cell-based; settings: PAC1/CHO cells; for CREB phosphorylation by PACAP (1 nM): compound 10 pM to 10 nM for 30 minutes before PACAP, FIG. 4A, 4C, 4D, 5
T1 construct: expressed in transfected cells; host or cells: CHO cells
T1 sequence (P70205 21-496): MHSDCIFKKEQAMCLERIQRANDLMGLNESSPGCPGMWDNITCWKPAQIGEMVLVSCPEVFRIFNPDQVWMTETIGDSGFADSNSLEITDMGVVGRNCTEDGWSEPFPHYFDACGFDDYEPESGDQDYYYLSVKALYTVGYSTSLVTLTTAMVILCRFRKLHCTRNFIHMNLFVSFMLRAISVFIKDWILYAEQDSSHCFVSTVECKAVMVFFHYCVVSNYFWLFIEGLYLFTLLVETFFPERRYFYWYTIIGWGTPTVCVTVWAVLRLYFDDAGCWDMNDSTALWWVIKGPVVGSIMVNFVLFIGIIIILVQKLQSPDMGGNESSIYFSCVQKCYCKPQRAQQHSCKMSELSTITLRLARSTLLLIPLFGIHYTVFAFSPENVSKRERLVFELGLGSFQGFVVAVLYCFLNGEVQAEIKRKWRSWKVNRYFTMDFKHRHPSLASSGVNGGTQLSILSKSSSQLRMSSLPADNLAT
Method: The effect of each compound on the phosphorylation of CREB (cAMP-responsive element-binding protein) produced by a PACAP stimulus was examined by Western blot analysis using an anti-phosphorylated CREB (pCREB) antibody with a mouse PAC1 receptor-expressing CHO cells (PAC1/CHO cells) and a mouse VPAC1 receptor-expressing CHO cells (VPAC1/CHO cells).
Specifically, treatment with a compound (PA-8, compound 2j and compound 2o) at 10 pM to 10 nM or a solvent therefor, DMSO (VEH: 0.1% DMSO-containing phosphate buffer solution) was performed for 30 minutes, 1 nM PACAP was then added, and protein was recovered within 30 minutes after a PACAP stimulus.
The effect of each compound on the phosphorylation of CREB (cAMP-responsive element-binding protein) produced by a PACAP stimulus was examined by Western blot analysis using an anti-phosphorylated CREB (pCREB) antibody with a mouse PAC1 receptor-expressing CHO cells (PAC1/CHO cells).

[1] = test system: PACAP-induced itch behavior in mice; assay: Itch behavior induced by PACAP intradermal administration; assay type: in vivo, mouse; settings: for biting, licking or scratching behavior induced by PACAP (100 pmol) intradermal administration: simultaneous intradermal administration with PACAP, 0.01 to 1 nmol, FIG. 7A, 8, 9
Source text: SLN indicates intradermal administration of normal saline. DMSO (10% solution, dissolved in normal saline) is a solvent for PA-8.
SLN indicates intradermal administration of normal saline. VEH (10% DMSO solution, dissolved in normal saline) is a solvent for PA-8 and the compound 2o.
SLN indicates intradermal administration of normal saline. VEH (10% DMSO solution, dissolved in normal saline) is a solvent for PA-9 and the compound 3d.

[2] = test system: chloroquine-induced itch behavior in mice; assay: Itch behavior induced by chloroquine intradermal administration; assay type: in vivo, mouse; settings: intrathecal pre-administration (i.t., 10 minutes before i.d.), 1 nmol; chloroquine 100 μg/10 μL; FIG. 10
Method: Chloroquine (100 μg/10 μL) was intradermally injected into the waist of each mouse (intradermal injection, i.d.). The reaction of biting, licking or scratching the injected site was defined as itch behavior, and the behavioral time was counted every 5 minutes. […] DMSO (10% solution, dissolved in normal saline) is a solvent for PA-8 or PA-9.

[3] = test system: Compound 48/80-induced itch behavior in mice; assay: Itch behavior induced by Compound 48/80 intradermal administration; assay type: in vivo, mouse; settings: intrathecal pre-administration (i.t., 10 minutes before i.d.), 1 nmol; Compound 48/80 100 μg/10 μL; FIG. 11
Method: Compound 48/80 (100 μg/10 μL) was intradermally injected into the waist of each mouse (intradermal injection, i.d.). The reaction of biting, licking or scratching the injected site was defined as itch behavior, and the behavioral time was counted every 5 minutes. […] DMSO (10% solution, dissolved in normal saline) is a solvent for PA-8 or PA-9.

[4] = test system: atopic dermatitis mouse model; assay: Atopic dermatitis mouse model (DNFB); assay type: in vivo, ICR mice; settings: 30 mg/kg p.o. 30 minutes before 1 hour video observation; FIG. 13
Method: The present test was carried out with reference to the method of Kitamura et al. that is a test system published as a method for evaluating itch in animals (Kitamura A., Takata R., Aizawa S., et al.: A murine model of atopic dermatitis can be generated by painting the dorsal skin with hapten twice 14 days apart, Scientific Rep., 8: 5988, 2018).
Five-week-old ICR mice (30 mice) were each placed in a cage, and were then conditioned for 1 week. Thereafter, three days before initiation of the test, the waist of each mouse was shaved. On the experiment start date, for the purpose of destroying the function of skin barrier, tape stripping was carried out, and 0.15% 2,4-dinitrofluorobenzene (DNFB) solution [acetone/olive oil (3:1)] was applied to the shaved waist of each mouse, using a 100-μIL pipette. Seven days later, the 0.15% DNFB solution was applied thereto once again, and two hours later, video observation was carried out for 1 hour. The shaved 30 mice were divided into 5 groups (6 mice per group), namely, a 30 mg/kg PA-8 oral (p.o.) administration group, a 30 mg/kg compound 2o oral (p.o.) administration group, a 30 mg/kg PA-9 oral (p.o.) administration group, a 30 mg/kg compound 3d (p.o.) administration group, and a solvent administration group (VEH: oral administration of 10% DMSO aqueous solution). Oral administration was carried out 30 minutes before initiation of the video observation.
An outline of the procedures of a behavioral experiment using the atopic dermatitis mouse model is shown in FIG. 12, and the results obtained by evaluating the time spent in scratching of each group are shown in FIG. 13.

psoriasis mouse model = assay: Psoriasis mouse model (imiquimod); assay type: in vivo, ICR mice; settings: 30 mg/kg p.o. 30 minutes before 1 hour video observation; FIG. 14
Method: The present test was carried out with reference to the method of van der Fits et al. that is a test system published as a method for evaluating itch in animals (van der Fits L., Mounts S., Voerman J S A., et al.: Imiquimod-Induced Psoriasis-Like Skin Inflammation in Mice Is Mediated via the IL-23/IL-17 Axis, J. Immunol., 182, 5836-5845, 2009).
Five-week-old ICR mice (20 mice) were each placed in a cage, and were then conditioned for 1 week. Thereafter, three days before initiation of the test, the waist of each mouse was shaved. Then, 62.5 mg of commercially available imiquimod cream (5% Beselna Cream; MOCHIDA PHARMACEUTICAL CO., LTD.) was applied onto the shaved waist skin of the mice once a day for 5 days, so as to produce imiquimod-induced psoriasis model. Twenty-four hours after the final application of the cream (Day 5), video observation was carried out for 1 hour. The shaved 20 mice were divided into 5 groups (4 mice per group), namely, a 30 mg/kg PA-8 oral (p.o.) administration group, a 30 mg/kg compound 2o oral (p.o.) administration group, a 30 mg/kg PA-9 oral (p.o.) administration group, a 30 mg/kg compound 3d (p.o.) administration group, and a solvent administration group (VEH: oral administration of 10% DMSO aqueous solution). Oral administration was carried out 30 minutes before initiation of the video observation.

[5] = test system: serotonin (5-HT)-induced itch mouse model; assay: Serotonin (5-HT)-induced itch mouse model; assay type: in vivo; settings: intrathecal pre-administration 30 minutes before 5-HT 50 nmol i.d.; PA-8 0.1 or 1 nmol; P6-38 100 pmol; FIG. 1
Method: 5-HT (50 nmol, 10 μL) was intradermally injected into the waist of each mouse (intradermal injection, i.d.). The reaction of the mice to bite, lick or scratch the injected site was defined as an itch behavior, and the action time was measured every 5 minutes. […] SLN indicates the effects obtained in the case of administering normal saline instead of 5-HT. ACSF is an abbreviation of an artificial cerebrospinal fluid, which was a solvent for P6-38 and PA-8.

[6] = test system: patients with atopic dermatitis; settings: patients with high severity, insufficient effect of topical steroids/tacrolimus; cited from earlier work

Row | Compound | CREB phosphorylation by PACAP (1 nM) (mouse PAC1 receptor) | biting, licking or scratching behavior induced by PACAP (100 pmol) intradermal administration [1] | itch behavior induced by the DNFB treatment (time spent in scratching) [4] | itch behavior induced by application of imiquimod (time spent in scratching) (psoriasis mouse model) | further results
1 | vasoactive intestinal peptide (HSDAVFTDNYTRLRKQMAVKKYLNSILN; ends and bridges not checked; UniProt P01282 125-152, looked up) [VIP] | – | – | – | – | itch behavior (biting, licking or scratching the administered site) caused by the peptide (mice): such effect was not observed
2 | O=C(NCCc1c[nH]cn1)C1CC(=O)N(c2n[nH]c3ccccc23)C1 (centres unmarked) [PA-9] | suppressed depending on the concentration | suppressed in a dose-dependent manner | significantly suppressed | significantly suppressed | chloroquine-induced itch behavior [2]: almost completely suppressed; Compound 48/80-induced itch behavior [3]: almost completely suppressed
3 | O=C(NCCc1c[nH]cn1)C1CC(=O)N(c2n[nH]c3c(Cl)cccc23)C1 (centres unmarked) [compound 3d, N-[2-(1H-imidazol-4-yl)ethyl]-1-(7-chloro-1H-indazol-3-yl)-5-oxo-3-pyrrolidinecarboxamide] | suppressed depending on the concentration | suppressed in a dose-dependent manner | significantly suppressed | significantly suppressed | –
4 | O=C1CC[C@@]2(O)[C@H]3Cc4ccc(O)c5c4[C@@]2(CCN3CC2CC2)[C@H]1O5 [naltrexone] | – | – | – | – | itch behavior induced by PACAP (100 pmol) intradermal administration ([1]; subcutaneous administration 1 mg/kg 15 minutes before PACAP, FIG. 7B): significantly suppressed
5 | CCOc1cccc(C2CC(=O)Nc3nc(N)[nH]c(=O)c32)c1 (centres unmarked) [compound 2j, 2-Amino-5-(3-ethoxyphenyl)-5,8-dihydro-3H,6H-pyrido[2,3-d]pyrimidine-4,7-dione] | suppressed depending on the concentration | – | – | – | –
6 | Nc1nc2c(c(=O)[nH]1)C(c1cccc(OC(F)(F)F)c1)CC(=O)N2 (centres unmarked) [compound 2o, 2-Amino-5-(3-trifluoromethoxyphenyl)-5,8-dihydro-3H,6H-pyrido[2,3-d]pyrimidine-4,7-dione] | suppressed CREB phosphorylation | suppressed in a dose-dependent manner | significantly suppressed | significantly suppressed | effect of suppressing CREB phosphorylation compared with PA-8 (mouse PAC1 receptor; 10 pM to 10 nM): slightly stronger effect of suppressing CREB phosphorylation than PA-8
7 | PACAP 6-38 | – | – | – | – | 5-HT-induced itch behavior (bite, lick or scratch the injected site, action time) [5]: did not provide significant effects
8 | dupilumab: human type anti-human IL-4/IL-13 receptor monoclonal antibody | – | – | – | – | share of patients for whom the drug is effective [6]: approximately 40%
